Laboratory results as given in patent US20260132103A1, “Bumetanide Derivatives for the Therapy of Stroke and Other Neurological Diseases/Disorders Involving NKCCs” (University of Pittsburgh - Of the Commonwealth System of …, priority 2018, published 2026).

Key:
Format in all cases: in vivo, mouse
[1] = tested on: transient focal cerebral ischemia (tMCAO) in mice; test: Corner test after tMCAO; details: 1-14 days after tMCAO
Description: (§1) FIGS. 2A-2D: Efficacy of NKCC1 inhibitors on improving neurological function in mice after tMCAO (see Example 3). (A) Neurological score, (B) corner test, (C) foot-fault test, and (D)-(E) adhesive tape test during 1-14 day after tMCAO. Data are mean±SD, n=4-9. *p<0.05 for DMSO vs STS66, **p<0.05 for DMSO vs STS5, ***p<0.05 for DMSO vs BMT, #p<0.05 for BMT vs STS66, ###p<0.05 for STS5 vs STS66.
(§2) Transient focal cerebral ischemia was induced in mice by intraluminal occlusion of the left middle cerebral artery (MCA) for 50 min as described previously (Chen H et al., 2005). Mice were anesthetized with 3% isoflurane in 70%: 30% N2O/O2 until they were unresponsive to the tail pinch test. Animals were then fitted with a nose cone blowing 1.5% isoflurane for anesthesia maintenance. The left common carotid artery was exposed and the occipital artery branches of the external carotid artery were isolated and coagulated. The internal carotid artery was isolated and the extracranial branch was dissected and ligated. […]
Neurological functional deficits in mice were determined by the corner test. […]
The numbers of left and right turns of each mouse during 10 trials were recorded, and turning movements that were not part of a rearing movement were not scored (Zhang L, et al., 2002).

[2] = tested on: transient focal cerebral ischemia (tMCAO) in mice; test: Neurological function tests (sensorimotor deficits) after tMCAO; details: normotensive mice, 1-14 days monitor and behavior test after stroke
Description: as §1
as §2, with “coagulated.” for “coagulated. The internal carotid artery was isolated and the extracranial branch was dissected and ligated.”
Neurological functional deficits in mice were assessed in a blinded manner with the following tests: neurological score, adhesive tape removal test, corner test, cylinder test, and grid walking foot-fault test. These tests are established for identifying and quantifying sensorimotor deficits and postural asymmetries (Bederson J B, et al., 1986; Zhang L, et al., 2002; Schaar K L, et al., 2010).

[3] = tested on: transient focal cerebral ischemia (tMCAO) in mice; test: Body weight and survival 1-14 days after tMCAO; details: for body weight changes: 1-14 days after tMCAO, versus DMSO Veh control; for mortality rate: between 1-14 days post tMCAO, BMT 10, STS5 13, STS66 12 mg/kg/day i.p.
Method: FIGS. 1A-1C: Efficacy of NKCC1 inhibitors in reducing ischemic infarction, cerebral edema, and the post-stroke survival in normotensive mice after tMCAO (see Example 3). (1A) Experimental protocol and data collection. Transient middle cerebral artery occlusion (tMCAO) was induced in normal C57/b6 mice. DMSO, BMT (10 mg/kg body weight), STS5 (13 mg/kg) or STS66 (12 mg/kg) was administered via intraperitoneal injection (i.p.) as described in method. (1 B) Representative TTC staining images in normotensive mice at 24 h reperfusion with quantitative analysis of infarct volume. Data are mean±SD, n=6-13 (male, n=3-9; female, n=3-4, *p<0.05). Scale: 5 mm. (1C) Percentage hemisphere swelling at 24 h reperfusion. Data are mean±SD, n=6-13, *p<0.05. (1D) Body weight change during 1-14 days after tMCAO. Data are mean±SD, n=5-9 (male, n=4; female, n=2, *p<0.05). (1E) Survival curve during 1-14 day after tMCAO. Data are mean±SD, n=5-9 (male, n=3-7; female, n=2, *p<0.05).
Transient focal cerebral ischemia was induced in mice by intraluminal occlusion of the left middle cerebral artery (MCA) for 50 min as described previously (Chen H et al., 2005). Mice were anesthetized with 3% isoflurane in 70%: 30% N2O/O2 until they were unresponsive to the tail pinch test. Animals were then fitted with a nose cone blowing 1.5% isoflurane for anesthesia maintenance. The left common carotid artery was exposed and the occipital artery branches of the external carotid artery were isolated and coagulated. The internal carotid artery was isolated and the extracranial branch was dissected and ligated. A rubber silicon-coated monofilament suture (6-0) was introduced into the internal carotid artery lumen and gently advanced approximately 8-9 mm to block the MCA blood flow for 50 min. The rectal temperature was maintained at 37.0±0.5° C. during surgery through a temperature-controlled heating pad. Achievement of ischemia was confirmed by monitoring regional cerebral blood flow (rCBF) with laser speckle contrast imager (Pericam). For reperfusion, the suture was withdrawn after the MCAO. The incision was closed and the mouse recovered under a heating lamp to maintain the core temperature (36.0-37.0° C.) during the 30-60 min recovery period. After recovery, animals were returned to their cages with free access to food and water.
Vehicle: DMSO (2 ml/kg body weight/day), the NKCC1 inhibitor bumetanide (BMT, 10 mg/kg body weight/day in DMSO), bumetanide's prodrug STS5 (13 mg/kg body weight/day in DMSO), or the novel NKCC1 inhibitor STS66 according to the invention (12 mg/kg body weight/day in DMSO) was administered via intraperitoneal injection (i.p). The initial half dose of the drugs (BMT, STS5, STS66) was given at 3 h after the onset of reperfusion and the second half dose at 8 h reperfusion in the tMCAO model.

Row | Compound | corner test outcome [1] | sensorimotor deficits [2] | body weight changes [3] | mortality rate [3]
1 | CCCCNc1cc(C(=O)O)cc(S(N)(=O)=O)c1Oc1ccccc1 [BMT, 3-(butylamino)-4-phenoxy-5-sulfamoylbenzoic acid, reference compound] | exhibited neuroprotective effects | improved all sensorimotor deficits | no differences in the body weight changes | ~16.7%
2 | CCCCNc1cc(CNCC(F)(F)F)cc(S(N)(=O)=O)c1Oc1ccccc1 [STS66, 3-(Butylamino)-2-phenoxy-5-[(2,2,2-trifluoroethylamino)methyl]benzenesulfonamide] | definite superior effects at every testing day | improved all sensorimotor deficits | no differences in the body weight changes | none of the STS66-treated mice died
